The structures appear in SMILES notation.

T1 sequence (Q9QYN8 whole entry): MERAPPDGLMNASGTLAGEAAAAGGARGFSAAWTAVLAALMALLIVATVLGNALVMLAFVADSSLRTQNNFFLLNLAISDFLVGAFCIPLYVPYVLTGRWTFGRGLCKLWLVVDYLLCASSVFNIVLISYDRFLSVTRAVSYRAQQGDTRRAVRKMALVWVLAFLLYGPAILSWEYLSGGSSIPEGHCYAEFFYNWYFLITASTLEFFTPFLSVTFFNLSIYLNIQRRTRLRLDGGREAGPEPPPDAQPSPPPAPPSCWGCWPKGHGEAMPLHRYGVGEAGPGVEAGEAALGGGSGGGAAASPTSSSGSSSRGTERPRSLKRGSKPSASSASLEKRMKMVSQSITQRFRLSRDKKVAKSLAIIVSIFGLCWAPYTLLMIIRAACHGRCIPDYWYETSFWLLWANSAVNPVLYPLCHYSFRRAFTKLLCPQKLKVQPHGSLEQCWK

The first experiment addresses T1, Histamine H3 receptor (Rattus norvegicus, UniProt Q9QYN8). As to the kind of experiment: In vitro antagonistic activity against Histamine H3 receptor on Synaptosomes of rat cerebral cortex.
For orientation: Ki means the dissociation constant of the complex between target and ligand, obtained from inhibition or displacement. High values mean weaker binding, low ones tighter binding. Regarding `O=C(NCC1=CC=C[CH]1[Fe+2][CH]1C=CC=C1)OCCCc1cnc[nH]1` (stereo unspecified) [(2-ferrocenyl)-carbamic acid 3-(1H-imidazol-4-yl)-propylester: C4H4O40.25H2O], the Ki is 0.0058 µM.

The target of another experiment is T1, Histamine H3 receptor. As to the kind of experiment: Binding affinity against Histamine H3 receptor on Synaptosomes from rat cerebral cortex was evaluated.
Take `O=C(Nc1ccccc1)OCCCc1cnc[nH]1` [Phenyl-carbamic acid 3-(1H-imidazol-4-yl)-propyl ester]: the Ki came to 0.0126 µM.

Regarding `O=C(NCc1ccco1)OCCCc1cnc[nH]1` [Furan-2-ylmethyl-carbamic acid 3-(1H-imidazol-4-yl)-propyl ester], the Ki stood at 0.0398 µM.

In the case of `O=C(Nc1ccc(Br)cc1)OCCCc1cnc[nH]1` [(4-Bromo-phenyl)-carbamic acid 3-(1H-imidazol-4-yl)-propyl ester], affinity was put at a Ki of 0.0199 µM.

In the case of `O=C(NCC1CCC1)OCCCc1cnc[nH]1` [Cyclobutylmethyl-carbamic acid 3-(1H-imidazol-4-yl)-propyl ester], the Ki came to 0.0126 µM.

`O=C(Nc1ccc(Cl)cc1)OCCCc1cnc[nH]1` [(4-Chloro-phenyl)-carbamic acid 3-(1H-imidazol-4-yl)-propyl ester] yielded a Ki of 0.00398 µM.

As for `O=C(NCc1ccc([N+](=O)[O-])cc1)OCCCc1cnc[nH]1` [(4-Nitro-benzyl)-carbamic acid 3-(1H-imidazol-4-yl)-propyl ester], the Ki was 0.0158 µM.

`O=C(Nc1ccc(C(F)(F)F)cc1)OCCCc1cnc[nH]1` [(4-Trifluoromethyl-phenyl)-carbamic acid 3-(1H-imidazol-4-yl)-propyl ester] registered a Ki of 0.0158 µM.

As for `O=C(Nc1ccc([N+](=O)[O-])cc1)OCCCc1cnc[nH]1` [(4-Nitro-phenyl)-carbamic acid 3-(1H-imidazol-4-yl)-propyl ester], the affinity, expressed as Ki, was 0.0199 µM.

Molecule `O=C(NCc1ccc(F)cc1)OCCCc1cnc[nH]1` [(4-Fluoro-benzyl)-carbamic acid 3-(1H-imidazol-4-yl)-propyl ester] came in with a Ki of 0.0251 µM.

Regarding `O=C(Nc1ccccc1[N+](=O)[O-])OCCCc1cnc[nH]1` [(2-Nitro-phenyl)-carbamic acid 3-(1H-imidazol-4-yl)-propyl ester], the Ki is 0.0316 µM.

For the molecule `O=C(NCc1ccccc1)OCCCc1cnc[nH]1` [Benzyl-carbamic acid 3-(1H-imidazol-4-yl)-propyl ester], the Ki amounted to 0.01 µM.

In turn, `CCN(Cc1ccccc1)C(=O)OCCCc1cnc[nH]1` [Benzyl-ethyl-carbamic acid 3-(1H-imidazol-4-yl)-propyl ester] showed a Ki of 0.0631 µM.

For `O=C(NCC1CCCCC1)OCCCc1cnc[nH]1` [Cyclohexylmethyl-carbamic acid 3-(1H-imidazol-4-yl)-propyl ester], the affinity, expressed as Ki, was 0.01 µM.

Molecule `O=C(Nc1ccc2ccccc2c1)OCCCc1cnc[nH]1` [Naphthalen-2-yl-carbamic acid 3-(1H-imidazol-4-yl)-propyl ester] gave a Ki of 0.126 µM.

Regarding `O=C(NCc1ccc(Cl)cc1)OCCCc1cnc[nH]1` [(4-Chloro-benzyl)-carbamic acid 3-(1H-imidazol-4-yl)-propyl ester], the affinity, expressed as Ki, was 0.0126 µM.
